In patent publication US10624916B2, “Nutritional formulations using human milk oligosaccharides for modulating inflammation” (ABBOTT LABORATORIES, priority 2012, dated 2020):

Test system: platelet neutrophil complex (PNC) formation
Test: in vitro simulation of PNC formation (ADP-stimulated, % CD11b+CD42a+ events)
Type: cell-based, human
Settings: 125 μg/mL; for individuals in whom PNC formation decreased: 3 donors, Table 4; for effect on PNC formation (in words): 15 minute ingredient incubation, n=2-3 individuals, FIG. 1; for % CD11b+CD42a+ in the tested condition as a percent of those events that were CD11b+CD42a+ under ADP stimulation, average: average of subjects; for % CD11b+CD42a+ in the tested condition as a percent of those events that were CD11b+CD42a+ under ADP stimulation, average / % CD11b+CD42a+ in the tested condition as a percent of those events that were CD11b+CD42a+ under ADP stimulation: 15 minutes with ingredient, then ADP (10 μM) 15 minutes
Protocol: Data was generated using an in vitro simulation of PNC formation with a 15 minute ingredient incubation period.
Test concentration was 125 μg/mL for all ingredients tested. Cells were incubated with test ingredients or medium alone (ADP) for 15 minutes. ADP (10 μM) was added to each tube and incubated for 15 minutes. The ADP alone contained no test ingredient. Data is expressed as % CD11b+CD42a+ in the tested conditions as a percent of those events that were CD11b+CD42a+ under ADP stimulation.

2′-fucosyllactose [2′FL]
individuals in whom PNC formation decreased: decreased PNC formation in all 3 individuals tested
effect on PNC formation (in words): significantly reduces PNC formation
% CD11b+CD42a+ in the tested condition as a percent of those events that were CD11b+CD42a+ under ADP stimulation, average: 66.9%
% CD11b+CD42a+ in the tested condition as a percent of those events that were CD11b+CD42a+ under ADP stimulation (subject 1): 87.8%
% CD11b+CD42a+ in the tested condition as a percent of those events that were CD11b+CD42a+ under ADP stimulation (subject 2): 62.1%
% CD11b+CD42a+ in the tested condition as a percent of those events that were CD11b+CD42a+ under ADP stimulation (subject 3): 50.7%

3-fucosyllactose [3FL]
effect on PNC formation (in words): did not decrease PNC formation
% CD11b+CD42a+ in the tested condition as a percent of those events that were CD11b+CD42a+ under ADP stimulation, average: 83.1%
% CD11b+CD42a+ in the tested condition as a percent of those events that were CD11b+CD42a+ under ADP stimulation (subject 1): 80.8%
% CD11b+CD42a+ in the tested condition as a percent of those events that were CD11b+CD42a+ under ADP stimulation (subject 2): 64.3%
% CD11b+CD42a+ in the tested condition as a percent of those events that were CD11b+CD42a+ under ADP stimulation (subject 3): 104.1%

CC(=O)N[C@H]1[C@H](O[C@H]2[C@@H](O)[C@@H](CO)O[C@@H](O[C@H]3[C@H](O)[C@@H](O)C(O)O[C@@H]3CO)[C@@H]2O)O[C@H](CO)[C@@H](O[C@@H]2O[C@H](CO)[C@H](O)[C@H](O)[C@H]2O)[C@@H]1O (mixture of isomers) [LNnT, lacto-N-neotetraose]
individuals in whom PNC formation decreased: decreased PNC formation in 2 out of the 3 subjects tested
% CD11b+CD42a+ in the tested condition as a percent of those events that were CD11b+CD42a+ under ADP stimulation, average: 75.4%
% CD11b+CD42a+ in the tested condition as a percent of those events that were CD11b+CD42a+ under ADP stimulation (subject 1): 102.3%
% CD11b+CD42a+ in the tested condition as a percent of those events that were CD11b+CD42a+ under ADP stimulation (subject 2): 82.9%
% CD11b+CD42a+ in the tested condition as a percent of those events that were CD11b+CD42a+ under ADP stimulation (subject 3): 41.1%

CC(=O)N[C@H]1[C@H]([C@H](O)[C@H](O)CO)O[C@@](O[C@H]2[C@@H](O)[C@@H](CO)O[C@@H](O[C@H]3[C@H](O)[C@@H](O)C(O)O[C@@H]3CO)[C@@H]2O)(C(=O)O)C[C@@H]1O (some centres unmarked) [3′SL, 3′-sialyllactose, reference compound]
effect on PNC formation (in words): do not decrease PNC formation
% CD11b+CD42a+ in the tested condition as a percent of those events that were CD11b+CD42a+ under ADP stimulation, average: 99.2%
% CD11b+CD42a+ in the tested condition as a percent of those events that were CD11b+CD42a+ under ADP stimulation (subject 1): 91.3%
% CD11b+CD42a+ in the tested condition as a percent of those events that were CD11b+CD42a+ under ADP stimulation (subject 2): 89.3%
% CD11b+CD42a+ in the tested condition as a percent of those events that were CD11b+CD42a+ under ADP stimulation (subject 3): 117.1%

CC(=O)N[C@H]1[C@H]([C@H](O)[C@H](O)CO)O[C@@](OC[C@H]2O[C@@H](O[C@H]3[C@H](O)[C@@H](O)[C@H](O)O[C@@H]3CO)[C@H](O)[C@@H](O)[C@H]2O)(C(=O)O)C[C@@H]1O [6′SL, 6′-sialyllactose, reference compound]
effect on PNC formation (in words): do not decrease PNC formation
% CD11b+CD42a+ in the tested condition as a percent of those events that were CD11b+CD42a+ under ADP stimulation, average: 94.2%
% CD11b+CD42a+ in the tested condition as a percent of those events that were CD11b+CD42a+ under ADP stimulation (subject 1): 90.1%
% CD11b+CD42a+ in the tested condition as a percent of those events that were CD11b+CD42a+ under ADP stimulation (subject 2): 59.8%
% CD11b+CD42a+ in the tested condition as a percent of those events that were CD11b+CD42a+ under ADP stimulation (subject 3): 132.8%
